Source: US11744830B2, “Ameliorative agent for cytokine release syndrome and so on” (TORII PHARMACEUTICAL CO., LTD., priority 2018, dated 2023)
Counter-ions that a name gives are not always drawn.

What was measured:
Type in all cases: cell-based, human
[1] = system: IL-6 production from CD14^+ cells; assay: LPS stimulation-induced IL-6 production in CD14^+ cells; settings: for IC50: Homo sapiens, 72 h, CD14^+ cells, LPS 3 ng/mL, 3 days
Procedure: (§1) Cryopreserved PBMCs were quickly thawed in a 37° C. thermostat and added to a tube containing medium. After centrifugation (at room temperature at 300 g for 10 minutes) to remove the supernatant, the cells were suspended again in the medium, followed by counting the number of viable cells. The cell suspension was centrifuged (at room temperature at 300 g for 10 minutes) to remove the supernatant, followed by addition of MACS Buffer to suspend the cells, to which Human CD14 MicroBeads were further added. After being allowed to stand on ice for 15 minutes, the cell suspension was diluted with MACS Buffer and centrifuged (at room temperature at 300 g for 10 minutes) to remove the supernatant.
MACS Buffer was added to the tube, and the cells were suspended and then applied to a separatory column to separate CD14^+ cells. The CD14^+ cell fraction was diluted with the medium and then centrifuged (at room temperature at 300 g for 10 minutes). The supernatant was removed and the cells were suspended in the medium (1 mL), followed by counting the number of viable cells. The cell suspension was adjusted with the medium to 2.4×10^5 or 3×10^5 cells/mL and seeded in a 96-well plate (2.4×10^4 cells/well), which was then allowed to stand in a CO2 incubator for 1 to 2 hours.
The collected culture supernatants were quantified for IL-6 using Human IL-6 DuoSet ELISA.

[2] = system: IL-1β production in CD14^+ cells; assay: LPS stimulation-induced IL-1β production in CD14^+ cells; settings: for IC50: Homo sapiens, 72 h, LPS 500 ng/mL, 3 days
Procedure: as §1, with “supernatant. MACS Buffer was added to the tube, and the cells were suspended and then applied to a separatory column to separate CD14^+ cells. The CD14^+ cell fraction was diluted with the medium and then centrifuged (at room temperature at 300 g for 10 minutes). The supernatant was removed and the cells were suspended in the medium (1 mL), followed by counting the number of viable cells. The cell suspension was adjusted with the medium to 2.4×10^5 or 3×10^5 cells/mL and seeded in a 96-well plate (2.4×10^4 cells/well), which was then allowed to stand in a CO2 incubator for 1 to 2 hours.” for “supernatant.”
The culture supernatants collected in 1.2.10 were quantified for IL-1β using Human IL-1β DuoSet ELISA.

[3] = system: IFN-γ production from PBMCs; assay: T-cell stimulation bead- and LPS stimulation-induced CRS toxicity evaluation system in PBMCs: IFN-γ; settings: for IC50: Homo sapiens, PBMC, 72 h, PBMCs, CD3/CD28 + LPS, 3 days
Procedure: Cryopreserved PBMCs were quickly thawed in a 37° C. thermostat and added to a tube containing medium. After centrifugation (at room temperature at 300 g for 10 minutes) to remove the supernatant, the cells were suspended again in the medium (10 mL), followed by counting the number of viable cells. After centrifugation (at room temperature at 300 g for 10 minutes) to remove the supernatant, the medium was added to suspend the cells at 1×10^6 cells/mL. This cell suspension was seeded in a 96-well plate in a volume of 100 μl/well (1×10^5 cells/well) and allowed to stand in a CO2 incubator for 1 to 2 hours.
The cells were cultured in a CO2 incubator for 3 days to collect the culture supernatants.
(§2) The collected culture supernatants were quantified for IFN-γ and IL-6 using Human IFN-γ DuoSet ELISA and Human IL-6 DuoSet ELISA.

[4] = system: IL-6 production in CD4^+ T cell-depleted PBMCs; assay: T-cell stimulation bead- and LPS stimulation-induced CRS toxicity evaluation system in CD4^+ T cell-depleted PBMCs: IL-6; settings: for IC50: Homo sapiens, 72 h, 3 days
Procedure: Cryopreserved human PBMCs were quickly thawed in a 37° C. thermostat and added to a tube containing medium. After centrifugation (at room temperature at 300 g for 10 minutes) to remove the supernatant, the cells were suspended again in the medium (10 mL), followed by counting the number of viable cells. The remainder of the cell suspension was centrifuged (at room temperature at 300 g for 10 minutes) to remove the supernatant, followed by addition of MACS Buffer in a volume of 80 μL and Human CD4 MicroBeads in a volume of 20 μL per 1×10^7 cells to suspend the cells. After being allowed to stand on ice for 15 minutes, the cell suspension was diluted with MACS Buffer (2 mL) and centrifuged (at room temperature at 300 g for 10 minutes) to remove the supernatant. MACS Buffer (500 μL) was added to the tube, and the cells were suspended and then applied to a separatory column to separate CD4^− cells (a pass-through fraction of CD4^+ cells). The CD4^− cell fraction was diluted to 15 mL with the medium and then centrifuged (at room temperature at 300 g for 10 minutes) to remove the supernatant, and the cells were then suspended again in the medium (1 mL), followed by counting the number of viable cells. The cell suspension adjusted with the medium to 1×10^6 cells/mL was seeded in a 96-well plate in a volume of 100 μl/well (1×10^5 cells/well) and allowed to stand in a CO2 incubator for 1 to 2 hours.
as §2

[5] = system: IL-18 production from LPS-pretreated CD14^+ cells; assay: ATP stimulation-induced IL-18 production from LPS-pretreated CD14^+ cells; settings: for IC50: Homo sapiens, CD14^+ cells (LPS-pretreated), ATP 5 mM
Procedure: as §1
MACS Buffer was added to the tube, and the cells were suspended and then applied to a separatory column to separate CD14^+ cells. The CD14^+ cell fraction was diluted with the medium and then centrifuged (at room temperature at 300 g for 10 minutes). The supernatant was removed and the cells were suspended in the medium (1 mL), followed by counting the number of viable cells. The cell suspension adjusted with the medium to 2×10^6 cells/mL was seeded in a 96-well plate (1×10^5 cells/well) and allowed to stand in a CO2 incubator for 1 to 2 hours. […] The cells were then stimulated with LPS (final concentration: 500 ng/mL) for 6 hours at 37° C. and an ATP solution (final concentration: 5 mM) was added thereto, and the 96-well plate was further allowed to stand in a CO2 incubator for 2 hours to collect the culture supernatants.
The collected culture supernatants were quantified for IL-18 using Human IL-18 DuoSet ELISA.

[6] = system: IL-8 production; assay: CRS toxicity evaluation system using CAR-T cells: IL-8; settings: for IC50: Homo sapiens, Monocyte, CAR-T cells, target cells and monocytes, 72 hours
Procedure: The supernatants were collected at 72 hours after the initiation of culture, and various cytokines in each supernatant were measured by FACS multiplex assay.

Row | Compound | IC50 [1] | IC50 [2] | suppressive effect on IL-1β production ([2]; LPS) | IC50 [3] | suppression of IFN-γ production versus IL-6 production ([3]; PBMCs co-stimulated with T-cell stimulation beads and LPS) | IC50 ([4]; CD3/CD28 + LPS) | suppression of IL-6 production ([4]; T-cell stimulation beads and LPS) | IC50 [5] | suppressive effect on IL-18 production ([5]; LPS-pretreated CD14^+ cells, ATP) | suppressive effect on IL-8 production ([6]; CRS toxicity evaluation system using CAR-T cells) | IC50 [6] | Ratio (IL-6/IFN-γ) of IC50 values ([1]; CD14^+ cells (IL-6) / CD8^+ T cells (IFN-γ)) | Ratio (IL-6/IFN-γ) of IC50 values ([4]; CD3/CD28 + LPS)
1 | C[C@]12C=CC(=O)C=C1CC[C@@H]1[C@@H]2[C@@H](O)C[C@@]2(C)[C@H]1CC[C@]2(O)C(=O)CO [PSL, Prednisolone] | 151 nM | > 30000 nM | no suppressive effect | 53 nM | more strongly suppressed IFN-γ production than IL-6 production | > 30000 nM | did not suppress | > 30000 nM | no suppressive effect | no suppressive effect | > 100000 nM |  | 
2 | CCOC(=O)[C@H](Cc1ccccc1)NC(=O)c1cc(Cl)c(OCCN2CCN(C)CC2)c(Cl)c1O [JTE-607, (−)-ethyl N-{3,5-dichloro-2-hydroxy-4-[2-(4-methylpiperazin-1-yl)ethoxy]benzoyl}-L-phenylalaninate dihydrochloride] | 52.9 nM | 3.45 nM |  | 50.1 nM |  | 42.2 nM |  | 2.4 nM |  |  | 154 nM | <0.18 | 0.52
